Test results reported in US20230321117A1, “USE OF […] TREATING AN EPILEPSY DISORDER” (MARINUS PHARMACEUTICALS, INC., priority 2020, published 2023).

Key:
Assay type in all cases: in vivo, human
[1] = test system: partial-onset (focal) seizures; experiment: Phase 3 trial in adults with focal seizures
Description: Based on the results of the phase 2 study, a double-blind, placebo-controlled phase 3 trial in adults with focal seizures was conducted. The study enrolled two cohorts: Cohort 1 was an initial assessment of safety and tolerability of GNX 1200 or 1800 mg/day compared to placebo. Cohort 2, on which the primary efficacy analysis was based, enrolled 359 participants with a diagnosis of epilepsy with uncontrolled partial-onset (focal) seizures with or without secondary generalization who had failed at least two prior AEDs and had been on a stable regimen of one to three AEDs for at least one month. Following an eight-week prospective baseline period during which there were at least three seizures/28 days, participants were randomized to GNX 1800 mg/d (N=179) or placebo (N=180). The primary endpoint was the percent change in 28-day frequency of focal motor, focal impaired awareness and focal to bilateral tonic-clonic seizures from baseline to the double-blind phase. The primary efficacy analysis was a rank ANCOVA based on the modified intent-to-treat (mITT) population, defined as randomized participants who had taken at least one dose of study drug and provided post-baseline seizure data.

[2] = test system: seizure occurrence in presurgical epilepsy participants; experiment: Double-blind placebo-controlled study during AED discontinuation with inpatient continuous EEG monitoring; details: 500 mg TID or 625 mg TID, up to 8 days; log-rank p=0.08
Description: A double-blind, placebo-controlled study that enrolled 52 participants 18-65 years of age undergoing AED discontinuation during inpatient continuous EEG monitoring as part of an evaluation for surgical treatment of epilepsy was performed. Participants were randomized and administered: (i) ganaxolone 500 mg TID, (ii) 625 mg TID, or (iii) matching placebo and treated for up to 8 days. The primary endpoint was difference in the duration of treatment before meeting withdrawal criteria based on seizure occurrence.

[3] = test system: major motor seizures in patients with CDKL5 deficiency disorder (CDD); experiment: Percent change in major motor seizure frequency vs plasma ganaxolone level, phase 3 CDD trial; details: back-transformation of log values; CDD participants
Excerpt: (§1) Global, randomized, double-blind, placebo-controlled phase 3 clinical trial to assess the safety and efficacy of adjunctive ganaxolone for the treatment of seizures associated with CDD. Patients aged 2 to 21 years with a pathogenic or likely pathogenic mutation of the CDKL5 gene, neurodevelopmental impairment, and seizures refractory to treatment with at least 2 prior antiseizure medications who experienced at least 16 seizures per 28 days during the 2 months prior to screening were eligible to enroll. Study consisted of a 6-week baseline followed by a 17-week double-blind phase (ganaxolone or placebo, 1:1). The dose of ganaxolone 50 mg/mL suspension was titrated over 4 weeks to 63 mg/kg/day (21 mg/kg TID), not to exceed 1800 mg/d (600 mg TID), or to the maximum tolerated dose. Blood draws for PK analysis were scheduled to occur at visit 3 (week 5), visit 4 (week 9), and visit 5 (week 17).
Mean ganaxolone concentration was calculated for each subject using available results from up to three laboratory determinations during the double-blind phase. Linear regression was conducted using arithmetic- and natural logarithm-transformed percent reduction in major motor seizures (loge [percent reduction+100]) as dependent variable and natural logarithm-transformed mean ganaxolone concentration as the single explanatory variable. […]

[4] = Plasma ganaxolone concentration in phase 3 CDD trial (PK/PD analysis)
Excerpt: as §1
Mean ganaxolone concentration was calculated for each subject using available results from up to three laboratory determinations during the double-blind phase. Linear regression was conducted using arithmetic- and natural logarithm-transformed percent reduction in major motor seizures (loge [percent reduction+100]) as dependent variable and natural logarithm-transformed mean ganaxolone concentration as the single explanatory variable. Regression diagnostics included examination of residual and normal probability plots and determination of outliers and influential values. Cases with standardized residuals >2 or <−2 were excluded from the model and the regression was repeated.
The resulting sample was utilized in determination of a Pearson correlation coefficient (using log-transformed values). Additionally, percent seizure reduction was compared in three tertiles representing low (N=13), medium (N=13) and high (N=12) mean per subject ganaxolone concentrations using a Kruskal-Wallis test.

[5] = test system: partial-onset (focal) seizures; experiment: Phase 2 study in adults with uncontrolled partial-onset (focal) seizures
Description: A Phase 2 study was conducted. It enrolled 147 participants 18-69 years of age with a diagnosis of epilepsy with uncontrolled partial-onset (focal) seizures with or without secondary generalization despite being treated with up to 3 AEDs. Participants were randomized to adjunctive placebo (N=49) or GNX liquid suspension (N=98) titrated to a target dose of at 500 mg TID (1500 mg/day) in addition to their baseline AEDs, after which they entered an eight-week prospective baseline period followed by a 10-week double-blind phase. The primary endpoint was the reduction in weekly frequency of focal motor, focal impaired awareness and focal to bilateral tonic-clonic seizures from baseline to the double-blind phase. The prespecified primary analysis was the reduction in mean weekly seizure frequency, with log-transformed rates analyzed using analysis of covariance (ANCOVA). The protocol defined the population for analysis (“Primary Population”) as participants with 10 or fewer seizures/week during the baseline period.

CC(=O)[C@H]1CC[C@H]2[C@@H]3CC[C@H]4C[C@](C)(O)CC[C@]4(C)[C@H]3CC[C@]12C [ganaxolone]
Median % reduction GNX ([1]; Phase 3, 1800 mg/d, BID, N 179): 21.3% | percent reduction in seizure frequency from baseline period to double-blind phase ([1]; mITT, Cohort 2, 1800 mg/d, 28-day frequency, p=0.179 vs placebo): 21.3% | clinical endpoint outcome ([1]; oral 1800 mg daily (900 mg twice a day), adults with focal seizures): clinical endpoint was not achieved | duration of treatment before meeting withdrawal criteria based on seizure occurrence, relative to placebo [2]: longer duration of treatment prior to study withdrawal | seizure reduction predicted at plasma concentration of approximately 100 ng/mL [3]: approximately 40% | Mean GNX level ([4]; High GNX level tertile (n = 12)): 172.6 ng/mL | Mean GNX level ([4]; Low GNX level tertile (n = 13)): 40.2 ng/mL | Mean GNX level ([4]; Medium GNX level tertile (n = 13)): 72.3 ng/mL | median percent reduction in seizure frequency ([5]; ITT population, 1500 mg/day TID, p=0.014 vs placebo): 25.9% | net reduction in weekly seizure frequency compared to placebo ([5]; ITT population, p=0.049): 11.4% | Median % reduction GNX ([5]; Phase 2, 1500 mg/d, TID, N 98): 25.9% | net reduction in weekly seizure frequency compared to placebo ([5]; Primary Population (10 or fewer seizures/week at baseline), p=0.042): 11.8% | weekly seizure frequency during the double-blind phase ([5]; Primary Population, 500 mg TID liquid suspension, adjunctive, baseline 3.13): 2.70
